Nine compounds from US11252962B2, “Cyclopropylpyridyl group-containing benzimidazole compound or salt thereof, agricultural and horticultural insecticide comprising the compound or the salt, and method for using the insecticide” (NIHON NOHYAKU CO., LTD., priority 2017, dated 2022) can be followed below.

Broadly, the mortality is the percentage killed. The term inhibition denotes the relative decrease from the control value, in per cent.

The subject of one test is Laodelphax striatellus. Briefly: Insecticidal test on Laodelphax striatellus. It is filed as in vivo. To be noted: 192 h, rice seedlings dipped 30 seconds, 3rd-instar larvae, 8 days after inoculation, read-out: insecticidal efficacy (corrected mortality rate), activity level. As to the method: Insecticidal Test on Laodelphax striatellus
Rice plant seedlings (variety: Nihonbare) were dipped in the agrochemical dispersions for 30 seconds. After air-dried, each seedling was put into a separate glass test tube and inoculated with ten 3rd-instar larvae of L. striatellus, and then the glass test tubes were capped with cotton plugs. At 8 days after the inoculation, the numbers of surviving larvae and dead larvae were counted, the corrected mortality rate was calculated according to the formula shown below, and the insecticidal efficacy was evaluated according to the criteria shown below. Corrected mortality rate (%)=100×(Survival rate in a non-treatment plot−Survival rate in a treatment plot)/Survival rate in a non-treatment plot [Math. 2] Corrected Mortality Rate A: the corrected mortality rate is 100%.

Another test relates to Myzus persicae. Briefly: Test for control efficacy on Myzus persicae. It is filed as in vivo. To be noted: 144 h, foliar application to potted Chinese cabbage, 6 days after application, read-out: control efficacy (control rate), activity level. The source says: Test for Control Efficacy on Myzus persicae Chinese cabbage plants were planted in plastic pots (diameter: 8 cm, height: 8 cm), Green peach aphids (M. persicae) were propagated on the plants, and the number of surviving Green peach aphids in each pot was counted. […] The agrochemical dispersions were applied to the foliage of the potted Chinese cabbage plants. After the plants were air-dried, the pots were kept in a greenhouse. At 6 days after the foliar application, the number of surviving Green peach aphids on the Chinese cabbage plant in each pot was counted, the control rate was calculated according to the formula shown below, and the control efficacy was evaluated according to the criteria shown below. Control rate=100−{(T×Ca)/(Ta×C)}×100 [Math. 1] Ta: the number of survivors before the foliar application in a treatment plot T: the number of survivors after the foliar application in a treatment plot Ca: the number of survivors before the foliar application in a non-treatment plot C: the number of survivors after the foliar application in a non-treatment plot Criteria A: the control rate is 100%. […] C: the control rate is 80 to 89%.

A further test deals with Plutella xylostella. Briefly: Insecticidal test on Plutella xylostella. The test is classed as in vivo. To be noted: 144 h, Chinese cabbage seedlings with laid eggs dipped about 30 seconds, 6 days after dip treatment, 25° C., read-out: insecticidal efficacy (corrected mortality rate), activity level. As to the method:
Insecticidal Test on Plutella xylostella
Adults of P. xylostella were released onto Chinese cabbage seedlings and allowed to lay eggs thereon. […] After air-dried, the seedlings were kept in a thermostatic chamber at 25° C. […] This test was conducted in triplicate using 10 adults of P. xylostella per plot. Corrected mortality rate (%)=100×(Number of hatched larvae in a non-treatment plot−Number of hatched larvae in a treatment plot)/Number of hatched larvae in a non-treatment plot [Math. 3]

A further test relates to Rhipicephalus sanguineus. Briefly: Parasiticidal test on Rhipicephalus sanguineus. The test is classed as in vivo. To be noted: treated filter paper, nymphs, 27° C., 48 hours after treatment, read-out: corrected mortality rate. On the procedure:
Parasiticidal Test on Rhipicephalus sanguineus
The diluted formulations were applied dropwise onto filter paper pieces placed in separate vials. The filter paper pieces were dried. Ten nymphs of R. sanguineus were placed into each vial and maintained at 27° C. with 80% humidity under a 12L12D light-dark cycle (L: light time, D: dark time). At 48 hours after agrochemical treatment, the numbers of surviving and dead nymphs were counted, and the corrected mortality rate was calculated according to the formula of Math. 4.

Another test has as its system Ctenocephalides felis. Briefly: Parasiticidal test on Ctenocephalides felis. It is filed as in vivo. To be noted: 50 ppm in bovine blood, adults, artificial feeding system 35° C., 24 hours after treatment, read-out: corrected mortality rate.
The subject of another test is Haemonchus contortus. Briefly: Parasiticidal test on Haemonchus contortus (larval motility). To be noted: 1st-instar larvae, 96-well plates, 27° C., 96 hours, read-out: percent inhibition in motility. The source says: Parasiticidal Test on Haemonchus contortus
Eggs of H. contortus were collected from feces of a goat and hatched in water. […] Percent inhibition in motility (%)=100×(Average motility in negative control wells−Average motility in treated wells)/Average motility in negative control wells [Math. 5]

Description for Ctenocephalides felis: Parasiticidal Test on Ctenocephalides felis
Newly-emerged adults of C. felis were placed into test cages (10 adults per test cage), and the test cages were maintained at 35° C. in an artificial feeding system. At 24 hours after agrochemical treatment, the numbers of surviving and dead adults were counted, and the corrected mortality rate was calculated according to the formula shown below. Corrected mortality rate (%)=100×(Survival rate in a negative control group−Survival rate in a treatment group)/Survival rate in a negative control group [Math.

For the compound `CCSc1cc(C2CC2)cnc1-c1nc2cc(SC(F)(F)F)ccc2n1C` [Compound 1-1, 2-(3-ethylthio-5-cyclopropylpyridin-2-yl)-1-methyl-5-(trifluoromethylthio)benzimidazole], the mortality at 500 ppm in the test with Laodelphax striatellus and with Plutella xylostella was 100% in each case. In addition, the pest or weed control at 500 ppm in the test with Myzus persicae was 100%.

Turning to `CC[S+]([O-])c1cc(C2CC2)cnc1-c1nc2cc(SC(F)(F)F)ccc2n1C` (stereo not drawn) [Compound 1-2, 2-(3-ethylsulfinyl-5-cyclopropylpyridin-2-yl)-1-methyl-5-(trifluoromethylthio)benzimidazole], the mortality at 500 ppm with Laodelphax striatellus and with Plutella xylostella was 100% in each case. In the test with Myzus persicae, the pest or weed control at 500 ppm was found to be 100%.

For `CCS(=O)(=O)c1cc(C2CC2)cnc1-c1nc2cc(SC(F)(F)F)ccc2n1C` [Compound 1-3, 2-(3-ethylsulfonyl-5-cyclopropylpyridin-2-yl)-1-methyl-5-(trifluoromethylthio)benzimidazole], the mortality at 100 ppm in the test with Rhipicephalus sanguineus is at least 90%. Further, the mortality at 50 ppm in the test on Ctenocephalides felis is at least 90%. Also, in the test with Haemonchus contortus, the inhibition at 100 ppm was at least 50%. In addition, the mortality at 500 ppm in the test with Laodelphax striatellus and in the test with Plutella xylostella was 100% each time. Besides, the pest or weed control at 500 ppm in the test with Myzus persicae is 100%.

As for `CCS(=O)(=O)c1cc(C2CC2)cnc1-c1nc2cc([S+]([O-])C(F)(F)F)ccc2n1C` (stereo not drawn) [Compound 1-4, 2-(3-ethylsulfonyl-5-cyclopropylpyridin-2-yl)-1-methyl-5-(trifluoromethylsulfinyl)benzimidazole], in the test on Rhipicephalus sanguineus, the mortality at 100 ppm is at least 90%. The mortality at 50 ppm with Ctenocephalides felis is at least 90%. In addition, the inhibition at 100 ppm in the test with Haemonchus contortus was at least 50%. Besides, the mortality at 500 ppm in the test on Laodelphax striatellus and in the test on Plutella xylostella was 100% each time. The pest or weed control at 500 ppm in the test on Myzus persicae is 100%.

As for `CCS(=O)(=O)c1cc(C2CC2)cnc1-c1nc2cc(S(=O)(=O)C(F)(F)F)ccc2n1C` [Compound 1-5, 2-(3-ethylsulfonyl-5-cyclopropylpyridin-2-yl)-1-methyl-5-(trifluoromethylsulfonyl)benzimidazole], the mortality at 500 ppm in the test with Laodelphax striatellus and in the test on Plutella xylostella was 100% throughout. Further, in the test with Myzus persicae, the pest or weed control at 500 ppm is 100%.

In the case of `CCSc1cc(C2(C#N)CC2)cnc1-c1nc2cc(SC(F)(F)F)ccc2n1C` [Compound 1-6], the mortality at 500 ppm with Laodelphax striatellus and with Plutella xylostella was 100% throughout. The pest or weed control at 500 ppm in the test with Myzus persicae came out at 100%.

With `CCS(=O)(=O)c1cc(C2CC2)cnc1-c1nc2cc(OC(F)(F)F)ccc2n1C` [Compound 1-27, 2-(5-cyclopropyl-3-ethylsulfonyl-pyridin-2-yl)-1-methyl-5-trifluoromethoxybenzimidazole], the mortality at 500 ppm in the test with Laodelphax striatellus and in the test on Plutella xylostella was 100% throughout. Further, in the test with Myzus persicae, the pest or weed control at 500 ppm came out at 100%.

As to `CCSc1cc(C2(C#N)CC2)cnc1-c1nc2cc(OC(F)(F)F)ccc2n1C` [Compound 1-83, 2-(5-(1-cyanocyclopropyl)-3-ethylthiopyridin-2-yl)-1-methyl-5-trifluoromethoxybenzimidazole], the mortality at 500 ppm in the test with Laodelphax striatellus and with Plutella xylostella was 100% in each case. The pest or weed control at 500 ppm in the test on Myzus persicae stood at 100%.

For `CCS(=O)(=O)c1cc(C2(C#N)CC2)cnc1-c1nc2cc(OC(F)(F)F)ccc2n1C` [Compound 1-85, 2-(5-(1-cyanocyclopropyl)-3-ethylsulfonyl-pyridin-2-yl)-1-m ethyl-5-trifluoromethoxybenzimidazole], the mortality at 500 ppm in the test on Laodelphax striatellus and with Plutella xylostella was 100% each time. The pest or weed control at 500 ppm with Myzus persicae was 100%.
